Measurements from the NIST ThermoML archive (doi:10.1021/je700428f).

Assay: xn = mol fraction of the nth substance listed
Conditions: 101 kPa, Liquid; for viscosity: Capillary tube (Ostwald / Ubbelohde) method

COC(C)(C)C [2-methoxy-2-methylpropane] + CCCCCCCCCC
Conditions | mass density [kg/m3] | viscosity [mPa·s]
273.15 K, x1 = 0.1016 | – | 1.2
273.15 K, x1 = 0.1019 | 745.52 | –
273.15 K, x1 = 0.2002 | – | 1.093
273.15 K, x1 = 0.2041 | 746.17 | –
273.15 K, x1 = 0.3003 | – | 1.004
273.15 K, x1 = 0.3077 | 747.06 | –
273.15 K, x1 = 0.3999 | 748 | –
273.15 K, x1 = 0.4013 | – | 0.909
273.15 K, x1 = 0.4992 | – | 0.822
273.15 K, x1 = 0.5005 | 749.23 | –
273.15 K, x1 = 0.6005 | – | 0.741
273.15 K, x1 = 0.6066 | 750.84 | –
273.15 K, x1 = 0.6866 | 752.32 | –
273.15 K, x1 = 0.7 | – | 0.659
273.15 K, x1 = 0.7973 | 754.83 | –
273.15 K, x1 = 0.8005 | – | 0.584
273.15 K, x1 = 0.8996 | – | 0.513
273.15 K, x1 = 0.8999 | 757.82 | –
273.15 K, x1 = 1 | 761.34 | –
278.15 K, x1 = 0.1016 | – | 1.092
278.15 K, x1 = 0.1019 | 741.7 | –
278.15 K, x1 = 0.2002 | – | 1.002
278.15 K, x1 = 0.2041 | 742.28 | –
278.15 K, x1 = 0.3003 | – | 0.924
278.15 K, x1 = 0.3077 | 743.09 | –
278.15 K, x1 = 0.3999 | 743.94 | –
278.15 K, x1 = 0.4013 | – | 0.841
278.15 K, x1 = 0.4992 | – | 0.765
278.15 K, x1 = 0.5005 | 745.06 | –
278.15 K, x1 = 0.6005 | – | 0.689
278.15 K, x1 = 0.6066 | 746.53 | –
278.15 K, x1 = 0.6866 | 747.9 | –
278.15 K, x1 = 0.7 | – | 0.615
278.15 K, x1 = 0.7973 | 750.21 | –
278.15 K, x1 = 0.8005 | – | 0.547
278.15 K, x1 = 0.8996 | – | 0.481
278.15 K, x1 = 0.8999 | 752.99 | –
278.15 K, x1 = 1 | 756.14 | –
283.15 K, x1 = 0.1016 | – | 1.001
283.15 K, x1 = 0.1019 | 737.88 | –
283.15 K, x1 = 0.2002 | – | 0.923
283.15 K, x1 = 0.2041 | 738.38 | –
283.15 K, x1 = 0.3003 | – | 0.855
283.15 K, x1 = 0.3077 | 739.1 | –
283.15 K, x1 = 0.3999 | 739.86 | –
283.15 K, x1 = 0.4013 | – | 0.779
283.15 K, x1 = 0.4992 | – | 0.713
283.15 K, x1 = 0.5005 | 740.87 | –
283.15 K, x1 = 0.6005 | – | 0.643
283.15 K, x1 = 0.6066 | 742.2 | –
283.15 K, x1 = 0.6866 | 743.44 | –
283.15 K, x1 = 0.7 | – | 0.575
283.15 K, x1 = 0.7973 | 745.55 | –
283.15 K, x1 = 0.8005 | – | 0.513
283.15 K, x1 = 0.8996 | – | 0.452
283.15 K, x1 = 0.8999 | 748.12 | –
283.15 K, x1 = 1 | 751.02 | –
288.15 K, x1 = 0.1016 | – | 0.923
288.15 K, x1 = 0.1019 | 734.04 | –
288.15 K, x1 = 0.2002 | – | 0.856
288.15 K, x1 = 0.2041 | 734.47 | –
288.15 K, x1 = 0.3003 | – | 0.793
288.15 K, x1 = 0.3077 | 735.1 | –
288.15 K, x1 = 0.3999 | 735.77 | –
288.15 K, x1 = 0.4013 | – | 0.726
288.15 K, x1 = 0.4992 | – | 0.664
288.15 K, x1 = 0.5005 | 736.66 | –
288.15 K, x1 = 0.6005 | – | 0.601
288.15 K, x1 = 0.6066 | 737.84 | –
288.15 K, x1 = 0.6866 | 738.97 | –
288.15 K, x1 = 0.7 | – | 0.54
288.15 K, x1 = 0.7973 | 740.88 | –
288.15 K, x1 = 0.8005 | – | 0.481
288.15 K, x1 = 0.8996 | – | 0.426
288.15 K, x1 = 0.8999 | 743.23 | –
288.15 K, x1 = 1 | 745.85 | –
293.15 K, x1 = 0.1016 | – | 0.855
293.15 K, x1 = 0.1019 | 730.2 | –
293.15 K, x1 = 0.2002 | – | 0.795
293.15 K, x1 = 0.2041 | 730.55 | –
293.15 K, x1 = 0.3003 | – | 0.743
293.15 K, x1 = 0.3077 | 731.09 | –
293.15 K, x1 = 0.3999 | 731.66 | –
293.15 K, x1 = 0.4013 | – | 0.678
293.15 K, x1 = 0.4992 | – | 0.622
293.15 K, x1 = 0.5005 | 732.44 | –
293.15 K, x1 = 0.6005 | – | 0.563
293.15 K, x1 = 0.6066 | 733.47 | –
293.15 K, x1 = 0.6866 | 734.47 | –
293.15 K, x1 = 0.7 | – | 0.507
293.15 K, x1 = 0.7973 | 736.17 | –
293.15 K, x1 = 0.8005 | – | 0.454
293.15 K, x1 = 0.8996 | – | 0.402
293.15 K, x1 = 0.8999 | 738.3 | –
293.15 K, x1 = 1 | 740.65 | –
298.15 K, x1 = 0.1016 | – | 0.797
298.15 K, x1 = 0.1019 | 726.35 | –
298.15 K, x1 = 0.2002 | – | 0.742
298.15 K, x1 = 0.2041 | 726.62 | –
298.15 K, x1 = 0.3003 | – | 0.692
298.15 K, x1 = 0.3077 | 727.06 | –
298.15 K, x1 = 0.3999 | 727.53 | –
298.15 K, x1 = 0.4013 | – | 0.635
298.15 K, x1 = 0.4992 | – | 0.584
298.15 K, x1 = 0.5005 | 728.19 | –
298.15 K, x1 = 0.6005 | – | 0.531
298.15 K, x1 = 0.6066 | 729.07 | –
298.15 K, x1 = 0.6866 | 729.94 | –
298.15 K, x1 = 0.7 | – | 0.479
298.15 K, x1 = 0.7973 | 731.44 | –
298.15 K, x1 = 0.8005 | – | 0.428
298.15 K, x1 = 0.8996 | – | 0.379
298.15 K, x1 = 0.8999 | 733.33 | –
298.15 K, x1 = 1 | 735.4 | –
303.15 K, x1 = 0.1016 | – | 0.744
303.15 K, x1 = 0.1019 | 722.46 | –
303.15 K, x1 = 0.2002 | – | 0.695
303.15 K, x1 = 0.2041 | 722.68 | –
303.15 K, x1 = 0.3003 | – | 0.65
303.15 K, x1 = 0.3077 | 723.02 | –
303.15 K, x1 = 0.3999 | 723.38 | –
303.15 K, x1 = 0.4013 | – | 0.597
303.15 K, x1 = 0.4992 | – | 0.55
303.15 K, x1 = 0.5005 | 723.93 | –
303.15 K, x1 = 0.6005 | – | 0.5
303.15 K, x1 = 0.6066 | 724.65 | –
303.15 K, x1 = 0.6866 | 725.39 | –
303.15 K, x1 = 0.7 | – | 0.452
303.15 K, x1 = 0.7973 | 726.66 | –
303.15 K, x1 = 0.8005 | – | 0.405
303.15 K, x1 = 0.8996 | – | 0.358
303.15 K, x1 = 0.8999 | 728.32 | –
303.15 K, x1 = 1 | 730.1 | –
308.15 K, x1 = 0.1016 | – | 0.698
308.15 K, x1 = 0.1019 | 718.59 | –
308.15 K, x1 = 0.2002 | – | 0.653
308.15 K, x1 = 0.2041 | 718.72 | –
308.15 K, x1 = 0.3003 | – | 0.606
308.15 K, x1 = 0.3077 | 718.96 | –
308.15 K, x1 = 0.3999 | 719.22 | –
308.15 K, x1 = 0.4013 | – | 0.562
308.15 K, x1 = 0.4992 | – | 0.519
308.15 K, x1 = 0.6005 | – | 0.474
308.15 K, x1 = 0.7 | – | 0.428
308.15 K, x1 = 0.8005 | – | 0.382
